Consider 46 molecules from patent publication US7358259B2, “HCV inhibitors and methods of using them” (Rigel Pharmaceuticals, Inc., priority 2003, dated 2008).

Where only a bound is given, the exact number is not on record here.

In this test the test system is HCV replicon in 5-2Luc replicon cells. The experiment in a line: HCV Replicon Assay (luciferase). The test is classed as cell-based. The conditions noted are these: Hepatitis C virus; Table 4; assay not given. The procedure:
Actively dividing 5-2Luc replicon cells were seeded at the density of 5000-7500 cells/well in the volume of 90 μl/well into 96 well plate(s). The cells were then incubated at 37° C. and 5% CO2 for 24 hours. The 5-2 cells are replicon cells licensed from Ralf Bartenschlager (Germany) and have a self-replicating RNA molecule in the Huh7 cell; the RNA contains HCV non-structural proteins that make the self-replication possible.
Various concentrations of compounds (in the volume of 10 μl) were added into each well 24 hours after seeding the cells. The cells were incubated for another 24 hours before luciferase assay.
After incubating the 5-2 Luc replicon cells with the compounds for 24 hours, media were aspirated from each well and Bright-Glo ([…]) luciferase assay reagents were added to each well according to the manufacturer's manual. Briefly, the Bright-Glo reagent was diluted with equal volume of PBS and an aliquote (100 μl) was added to each well. After incubating the plate at room temperature for 5 minutes, luciferase counts were taken using a luminometer.
(In general: A replicon is a self-replicating genome or part of one, used to study replication in cells.)
`O=C(NOC1CCCCO1)c1cc2ccc(F)cc2n2c(Cl)nnc12` (stereo not shown) [1-chloro-8-fluoro-N-(tetrahydro-2H-py-ran-2-yloxy)-[1,2,4]tri-azolo[4,3-a]quinoline-4-car-boxamide]: the half-maximal inhibitory concentration (IC50) – broadly, the concentration at which inhibition is half-maximal – is above 10 µM. To `O=C(NO)c1cc2ccc(F)cc2n2c(Cl)nnc12` [1-chloro-8-fluoro-N-hydroxy-[1,2,4]tri-azolo[4,3-a]quinoline-4-car-boxamide] belongs below 10 µM; to `O=C(NO)c1cc2ccccc2nc1Cl` [2-chloro-N-hydroxyquinoline-3-car-boxamide], above 10 µM; to `ClC(Cl)c1nnc(-c2cc3nnnn3c3ccccc23)o1` [5-(5-(dichloromethyl)-1,3,4-oxa-diazol-2-yl)tetrazolo[1,5-a]quino-line], above 10 µM.

With `O=C(NOC1CCCCO1)c1cc2c(Cl)cccc2n2nnnc12` (stereo not shown) [6-chloro-N-(tetrahydro-2H-pyran-2-yl-oxy)tetrazolo[1,5-a]quinoline-4-car-boxamide], the 50% inhibitory concentration (IC50) was above 10 µM. `O=C(NO)c1cc2c(Cl)cccc2n2nnnc12` [6-chloro-N-hydroxytetrazolo[1,5-a]quino-line-4-carboxamide] gave a concentration for half-maximal inhibition (IC50) below 10 µM. To `COc1cc2cc(C(=O)NOC3CCCCO3)c3nnnn3c2cc1OC` (stereo not shown) [7,8-dimethoxy-N-(tetrahydro-2H-py-ran-2-yloxy)tetrazolo[1,5-a]quino-line-4-carboxamide] belongs below 10 µM. Regarding `O=C(NOC1CCCCO1)c1cc2cc(Cl)cc(Cl)c2n2cnnc12` (stereo not shown) [7,9-dichloro-N-(tetrahydro-2H-py-ran-2-yloxy)-[1,2,4]tri-azolo[4,3-a]quinoline-4-car-boxamide], the half-inhibitory concentration (IC50) was above 10 µM.

Consider `O=C(NOC1CCCCO1)c1cc2cc(Cl)cc(Cl)c2n2nnnc12` (stereo not shown) [7,9-dichloro-N-(tetrahydro-2H-py-ran-2-yloxy)tetrazolo[1,5-a]quino-line-4-carboxamide], for which the IC50 is above 10 µM. To `O=C(NO)c1cc2cc(Cl)cc(Cl)c2n2nnnc12` [7,9-dichloro-N-hy-droxytetrazolo[1,5-a]quinoline-4-car-boxamide] belongs below 10 µM; to `O=C(NO)c1cc2cc(Cl)cc(Cl)c2n2cnnc12` [7,9-dichloro-N-hydroxy-[1,2,4]tri-azolo[4,3-a]quinoline-4-car-boxamide], below 10 µM; to `O=C(O)c1cc2cc(Cl)cc(Cl)c2n2cnnc12` [7,9-dichloro-[1,2,4]triazolo[4,3-a]quino-line-4-carboxylic acid], above 10 µM.

Regarding `Cc1cc(C)c2c(c1)cc(C(=O)NOC1CCCCO1)c1nnnn12` (stereo not shown) [7,9-dimethyl-N-(tetrahydro-2H-py-ran-2-yloxy)tetrazolo[1,5-a]quino-line-4-carboxamide], the concentration for half-maximal inhibition (IC50) was above 10 µM. To `O=C(NOC1CCCCO1)c1cc2cc(Cl)ccc2n2cnnc12` (stereo not shown) [7-chloro-N-(tetrahydro-2H-pyran-2-yl-oxy)-[1,2,4]triazolo[4,3-a]quino-line-4-carboxamide] belongs above 10 µM; to `O=C(NOC1CCCCO1)c1cc2cc(Cl)ccc2n2nnnc12` (stereo not shown) [7-chloro-N-(tetrahydro-2H-pyran-2-yl-oxy)tetrazolo[1,5-a]quinoline-4-car-boxamide], above 10 µM. `Cc1nnc2c(C(=O)NO)cc3cc(Cl)ccc3n12` [7-chloro-N-hydroxy-1-methyl-[1,2,4]tri-azolo[4,3-a]quinoline-4-car-boxamide] yielded a half-inhibitory concentration (IC50) below 10 µM. `O=C(NO)c1cc2cc(Cl)ccc2n2cnnc12` [7-chloro-N-hydroxy-[1,2,4]tri-azolo[4,3-a]quinoline-4-car-boxamide] yielded an IC50 below 10 µM. To `O=C(NO)c1cc2cc(Cl)ccc2n2nnnc12` [7-chloro-N-hydroxytetrazolo[1,5-a]quino-line-4-carboxamide] belongs below 10 µM; to `O=C(NO)c1cc2cc(F)ccc2n2nnnc12` [7-fluoro-N-hydroxytetrazolo[1,5-a]quino-line-4-carboxamide], below 10 µM. On to `COc1cc2cc(C(=O)NOC3CCCCO3)c3nnnn3c2cc1Cl` (stereo not shown) [8-chloro-7-methoxy-N-(tetra-hydro-2H-pyran-2-yl-oxy)tetrazolo[1,5-a]quinoline-4-car-boxamide], for which the IC50 is above 10 µM. To `COc1cc2cc(C(=O)NO)c3nnnn3c2cc1Cl` [8-chloro-N-hydroxy-7-meth-oxytetrazolo[1,5-a]quino-line-4-carboxamide] belongs below 10 µM; to `CN(O)C(=O)c1cc2ccc(Cl)cc2n2nnnc12` [8-chloro-N-hydroxy-N-meth-yltetrazolo[1,5-a]quinoline-4-car-boxamide], above 10 µM. `O=C(NO)c1cc2ccc(Cl)cc2n2nnnc12` [8-chloro-N-hydroxytetrazolo[1,5-a]quino-line-4-carboxamide]: the IC50 was below 10 µM.

The molecule `O=C(O)c1cc2ccc(F)cc2n2cnnc12` [8-fluoro-[1,2,4]triazolo[4,3-a]quino-line-4-carboxylic acid] came in with a half-maximal inhibitory concentration (IC50) above 10 µM. On to `COc1ccc2cc(C(=O)NOC3CCCCO3)c3nnnn3c2c1` (stereo not shown) [8-methoxy-N-(tetrahydro-2H-py-ran-2-yloxy)tetrazolo[1,5-a]quino-line-4-carboxamide], for which the IC50 was above 10 µM.

As to `O=C(NOC1CCCCO1)c1cc2cccc(Cl)c2n2nnnc12` (stereo not shown) [9-chloro-N-(tetrahydro-2H-pyran-2-yl-oxy)tetrazolo[1,5-a]quinoline-4-car-boxamide], the half-inhibitory concentration (IC50) is above 10 µM. For `O=C(NO)c1cc2cccc(Cl)c2n2nnnc12` [9-chloro-N-hydroxytetrazolo[1,5-a]quino-line-4-carboxamide] the value was below 10 µM; for `Cc1cccc2cc(C(=O)NOC3CCCCO3)c3nnnn3c12` (stereo not shown) [9-methyl-N-(tetrahydro-2H-pyran-2-yl-oxy)tetrazolo[1,5-a]quinoline-4-car-boxamide], above 10 µM; for `O=C(NOC1CCCCO1)c1cc2ccccc2n2nnnc12` (stereo not shown) [N-(tetrahydro-2H-pyran-2-yl-oxy)tetrazolo[1,5-a]quinoline-4-car-boxamide], above 10 µM. To `O=C(NOC1CCCCO1)c1cc2nnnn2c2ccccc12` (stereo not shown) [N-(tetrahydro-2H-pyran-2-yl-oxy)tetrazolo[1,5-a]quinoline-5-car-boxamide] belongs above 10 µM; to `O=C(NOC1CCCCO1)c1cc2ccc(OC(F)(F)F)cc2n2nnnc12` (stereo not shown) [N-(tetrahydro-2H-pyran-2-yloxy)-8-(tri-fluoromethoxy)tetrazolo[1,5-a]quino-line-4-carboxamide], above 10 µM. In the case of `COc1cc2cc(C(=O)NO)c3nnnn3c2cc1OC` [N-hydroxy-7,8-di-methoxytetrazolo[1,5-a]quino-line-4-carboxamide], the half-inhibitory concentration (IC50) was below 10 µM. On to `Cc1cc(C)c2c(c1)cc(C(=O)NO)c1nnnn12` [N-hydroxy-7,9-di-methyltetrazolo[1,5-a]quino-line-4-carboxamide], for which the IC50 was below 10 µM. To `O=C(NO)c1cc2cc3c(cc2n2nnnc12)OCCO3` [N-hydroxy-8,9-di-hydro[1,4]dioxino[2,3-g]tetra-zolo[1,5-a]quinoline-4-car-boxamide] belongs below 10 µM.

Take `O=C(NO)c1cc2ccc(OC(F)(F)F)cc2n2nnnc12` [N-hydroxy-8-(tri-fluoromethoxy)tetrazolo[1,5-a]quino-line-4-carboxamide]: the half-maximal inhibitory concentration (IC50) was below 10 µM. For the molecule `O=C(NO)c1cc2ccc(C(F)(F)F)cc2n2nnnc12` [N-hydroxy-8-(tri-fluoromethyl)tetrazolo[1,5-a]quino-line-4-carboxamide], the IC50 was below 10 µM. The molecule `COc1ccc2cc(C(=O)NO)c3nnnn3c2c1` [N-hydroxy-8-meth-oxytetrazolo[1,5-a]quino-line-4-carboxamide] came in with a 50% inhibitory concentration (IC50) above 10 µM.

`Cc1cccc2cc(C(=O)NO)c3nnnn3c12` [N-hydroxy-9-methyltetrazolo[1,5-a]quino-line-4-carboxamide] yielded an IC50 below 10 µM. The molecule `O=C(NO)c1cnc2ccccc2c1` [N-hydroxyquinoline-3-car-boxamide] yielded a 50% inhibitory concentration (IC50) above 10 µM. For `O=C(NO)c1cc2ccccc2n2nnnc12` [N-hydroxytetrazolo[1,5-a]quino-line-4-carboxamide] the value was below 10 µM. Consider `O=C(NO)c1cc2nnnn2c2ccccc12` [N-hydroxytetrazolo[1,5-a]quino-line-5-carboxamide], for which the half-inhibitory concentration (IC50) was above 10 µM. To `CCOC(=O)c1cc2cc(Cl)cc(Cl)c2n2cnnc12` [ethyl 7,9-dichloro-[1,2,4]tri-azolo[4,3-a]quinoline-4-car-boxylate] belongs above 10 µM; to `CCOC(=O)c1cc2cc(Cl)ccc2n2c(C)nnc12` [ethyl 7-chloro-1-methyl-[1,2,4]tri-azolo[4,3-a]quinoline-4-car-boxylate], above 10 µM; to `CCOC(=O)c1cc2cc(Cl)ccc2n2cnnc12` [ethyl 7-chloro-[1,2,4]tri-azolo[4,3-a]quinoline-4-car-boxylate], above 10 µM. To `COC(=O)c1cc2ccc(F)cc2n2cnnc12` [methyl 8-fluoro-[1,2,4]tri-azolo[4,3-a]quinoline-4-car-boxylate] belongs above 10 µM; to `COC(=O)c1cc2nnnn2c2ccccc12` [methyl tetrazolo[1,5-a]quinoline-5-car-boxylate], above 10 µM.
